What all share (type): in vivo
For data set [1], the system named is Tetranychus urticae (Two-Spotted Spider Mite). Put plainly: Example B10: Tetranychus urticae feeding/contact activity, bean leaf discs. The conditions noted are these: foliar, 192 h, application rate of 200 ppm, mixed population (mobile stages), 8 days after infestation. Here is the method:
Bean leaf discs on agar in 24-well microtiter plates were sprayed with aqueous test solutions prepared from 10,000 ppm DMSO stock solutions. After drying the leaf discs were infested with a mite population of mixed ages. The samples were assessed for mortality on mixed population (mobile stages) 8 days after infestation.

Data set [2] relates to Myzus persicae (Green peach aphid). Put plainly: Example B5: Myzus persicae feeding/contact activity, sunflower leaf discs. The conditions noted are these: foliar; for mortality at 200 ppm: Myzus persicae, 144 h, application rate of 200 ppm, mixed ages, 6 days after infestation, read-out: mortality. Here is the method: Sunflower leaf discs were placed onto agar in a 24-well microtiter plate and sprayed with aqueous test solutions prepared from 10,000 ppm DMSO stock solutions. After drying, the leaf discs were infested with an aphid population of mixed ages. The samples were assessed for mortality 6 days after infestation.

Data set [3] relates to Plutella xylostella (Diamond Back Moth). Briefly: Example B7: Plutella xylostella, artificial diet, L2 larvae. As to conditions: 120 h, application rate of 200 ppm, L2 larvae, 5 days after infestation, read-out: effect in at least one of the two categories (mortality or growth inhibition). As for the experimental part: 24-well microtiter plates with artificial diet were treated with aqueous test solutions prepared from 10,000 ppm DMSO stock solutions by pipetting. After drying, the plates were infested with L2 larvae (10 to 15 per well). The samples were assessed for mortality and growth inhibition in comparison to untreated samples 5 days after infestation.

In data set [4] the test system is Euschistus heros (Neotropical Brown Stink Bug). Briefly: Example B3: Euschistus heros, soybean leaves, N2 nymphs. As to conditions: for percent effect (mortality or growth inhibition) at 200 ppm: Euschistus heros, 120 h, application rate of 200 ppm, N2 nymphs, 5 days after infestation, read-out: effect in at least one of the two categories (mortality or growth inhibition). As for the experimental part: Soybean leaves on agar in 24-well microtiter plates were sprayed with aqueous test solutions prepared from 10,000 ppm DMSO stock solutions. After drying the leaves were infested with N2 nymphs. The samples were assessed for mortality and growth inhibition in comparison to untreated samples 5 days after infestation.

For data set [5], the system named is Myzus persicae (Green peach aphid). Briefly: Example B6: Myzus persicae systemic activity, pea seedlings. The conditions noted are these: for mortality at 24 ppm: Myzus persicae, 144 h, test rate of 24 ppm, mixed ages, 6 days after placing seedlings into test solutions, read-out: mortality. As for the experimental part:
Roots of pea seedlings infested with an aphid population of mixed ages were placed directly into aqueous test solutions prepared from 10,000 DMSO stock solutions. The samples were assessed for mortality 6 days after placing seedlings into test solutions.

In another data set the test system is Melodoigyne incognita. Briefly: Example B14: Melodoigyne incognita juvenile mobility, in vitro profiling in 96 well plate. The conditions noted are these: 200 ppm; after 24 h; second stage juveniles; read-out: control (juvenile mobility). Here is the method: Test solutions are prepared from 10,000 ppm DMSO stock solutions with a TECAN robot to achieve 20 μL of 1000, 200, 100, 50, 25 and 12.5 ppm. For each concentration three replicates are produced. Per well, 80 μL nematode solution is added containing 100 to 150 freshly harvested second stage juveniles of Melodoigyne incognita. The plates are covered and stored at room temperature in the dark and incubated for 24 h. Mobility of the exposed juveniles in a treated well is measured using an imaging tool and compared to an average of 12 untreated replicates.

The subject of data set [6] is Spodoptera littoralis (Egyptian Cotton Leaf Worm). Put plainly: Example B9: Spodoptera littoralis, cotton leaf discs (mortality, anti-feeding, growth inhibition). As to conditions: foliar, 72 h, application rate of 200 ppm, L1 larvae, 3 days after infestation, read-out: control (mortality, anti-feeding effect or growth inhibition). As for the experimental part: Cotton leaf discs were placed onto agar in 24-well microtiter plates and sprayed with aqueous test solutions prepared from 10,000 ppm DMSO stock solutions. After drying the leaf discs were infested with five L1 larvae. The samples were assessed for mortality, anti-feeding effect, and growth inhibition in comparison to untreated samples 3 days after infestation. Control of Spodoptera littoralis by a test sample is given when at least one of the categories mortality, anti-feedant effect, and growth inhibition is higher than the untreated sample.

Data set [7] deals with Diabrotica Balteata (Corn Root Worm). Briefly: Example B2: Diabrotica balteata, maize sprouts, L2 larvae. As to conditions: for percent effect (mortality or growth inhibition) at 200 ppm: Diabrotica balteata, 96 h, application rate of 200 ppm, L2 larvae, 4 days after infestation, read-out: effect in at least one of the two categories (mortality or growth inhibition). Here is the method: Maize sprouts placed onto an agar layer in 24-well microtiter plates were treated with aqueous test solutions prepared from 10,000 ppm DMSO stock solutions by spraying. After drying, the plates were infested with L2 larvae (6 to 10 per well). The samples were assessed for mortality and growth inhibition in comparison to untreated samples 4 days after infestation.

Data set [8] concerns Frankliniella occidentalis (Western Flower Thrips). Briefly: Example B4: Frankliniella occidentalis feeding/contact activity, sunflower leaf discs. The conditions noted are these: foliar, 168 h, application rate of 200 ppm, mixed ages, 7 days after infestation. Here is the method:
Sunflower leaf discs were placed on agar in 24-well microtiter plates and sprayed with aqueous test solutions prepared from 10,000 DMSO stock solutions. After drying the leaf discs were infested with a Frankliniella population of mixed ages. The samples were assessed for mortality 7 days after infestation.

This is an account of results in patent US20210047291A1, “PESTICIDALLY ACTIVE HETEROCYCLIC DERIVATIVES WITH SULFUR CONTAINING SUBSTITUENTS” (SYNGENTA PARTICIPATIONS AG, priority 2018, published 2021).

Each structure is given as a SMILES string. Bounds are passed on as bounds.

In general, mortality refers to the share of the test organisms that died. Consider `CCS(=O)(=O)c1cc(N(C(C)=O)C2(C#N)CC2)cnc1-c1nc2cc(C(F)(F)F)ncc2n1C` [P42, N-(1-cyanocyclopropyl)-N-[5-ethylsulfonyl-6-[3-methyl-6-(trifluoromethyl)imidazo[4,5-c]pyridin-2-yl]-3-pyridyl]acetamide], for which the mortality at 200 ppm in [1] and in data set [2] was no less than 80% throughout. The percent effect (mortality or growth inhibition) at 200 ppm in [3] and in data set [4] was no less than 80% throughout. In [5], the mortality at 24 ppm is no less than 80%. Also, the pest or weed control at 200 ppm in the data set on Melodoigyne incognita was no less than 80%. Further, the percent control (mortality, anti-feedant effect or growth inhibition) at 200 ppm in data set [6] is no less than 80%.
As to `CCS(=O)(=O)c1cc(N(OC)C(C)=O)cnc1-c1nc2cc(C(F)(F)F)ncc2n1C` [P30, N-[5-ethylsulfonyl-6-[3-methyl-6-(trifluoromethyl)imidazo[4,5-c]pyridin-2-yl]-3-pyridyl]-N-methoxy-acetamide], the mortality at 200 ppm in data set [2] was no less than 80%. Besides, the percent effect (mortality or growth inhibition) at 200 ppm in data set [3], in data set [4] and in data set [7] was no less than 80% throughout. In addition, the mortality at 24 ppm in data set [5] is no less than 80%. Also, in the data set on Melodoigyne incognita, the pest or weed control at 200 ppm was no less than 80%. The percent control (mortality, anti-feedant effect or growth inhibition) at 200 ppm in data set [6] was no less than 80%.
For the compound `CCC(=O)N(OC)c1cnc(-c2nc3cc(C(F)(F)F)ncc3n2C)c(S(=O)(=O)CC)c1` [P29, N-[5-ethylsulfonyl-6-[3-methyl-6-(trifluoromethyl)imidazo[4,5-c]pyridin-2-yl]-3-pyridyl]-N-methoxy-propanamide], the mortality at 200 ppm in data set [2] was no less than 80%. The percent effect (mortality or growth inhibition) at 200 ppm in [3], in data set [4] and in data set [7] was no less than 80% in each case. Further, the mortality at 24 ppm in [5] is no less than 80%. Also, the pest or weed control at 200 ppm in the data set with Melodoigyne incognita is no less than 80%. In addition, in data set [6], the percent control (mortality, anti-feedant effect or growth inhibition) at 200 ppm is no less than 80%.
On to `CCC(=O)N(C)c1cnc(-c2nc3cc(C(F)(F)F)ncc3n2C)c(S(=O)(=O)CC)c1` [P23, N-[5-ethylsulfonyl-6-[3-methyl-6-(trifluoromethyl)imidazo[4,5-c]pyridin-2-yl]-3-pyridyl]-N-methyl-propanamide], for which the mortality at 200 ppm in data set [1] and in data set [2] was no less than 80% in each case. The mortality at 12.5 ppm in [2] (Concentration 12.5 ppm, Myzus persicae (feeding/contact, Example B5), read-out: Mortality (%)) was determined as 90%. For the same compound, the percent effect (mortality or growth inhibition) at 200 ppm in data set [3], in data set [4] and in [7] was no less than 80% in each case. For the same compound, in data set [4] (Concentration 50 ppm, Euschistus heros (Example B3), read-out: Mortality (%)), the mortality at 50 ppm amounted to 100%. Moreover, the mortality at 1.5 ppm in data set [5] (Concentration 1.5 ppm, Myzus persicae (systemic, Example B6), read-out: Mortality (%)) is 100%. In addition, in [5], the mortality at 24 ppm is no less than 80%. Moreover, the pest or weed control at 200 ppm in the data set on Melodoigyne incognita is no less than 80%. The percent control (mortality, anti-feedant effect or growth inhibition) at 200 ppm in [6] is no less than 80%.
Consider `CCS(=O)(=O)c1cc(N(C)C(=O)C2CC2)cnc1-c1nc2cc(C(F)(F)F)ncc2n1C` [P9, N-[5-ethylsulfonyl-6-[3-methyl-6-(trifluoromethyl)imidazo[4,5-c]pyridin-2-yl]-3-pyridyl]-N-methyl-cyclopropanecarboxamide], for which the mortality at 200 ppm in [2] and in data set [8] was no less than 80% in each case. In addition, the percent effect (mortality or growth inhibition) at 200 ppm in data set [3], in data set [4] and in [7] was no less than 80% throughout. For the same compound, the mortality at 24 ppm in data set [5] was no less than 80%. Besides, in the data set with Melodoigyne incognita, the pest or weed control at 200 ppm was no less than 80%. Further, the percent control (mortality, anti-feedant effect or growth inhibition) at 200 ppm in data set [6] was no less than 80%.
`CCS(=O)(=O)c1cc(N(C)C(=O)C(F)(F)F)cnc1-c1nc2cc(C(F)(F)F)ncc2n1C` [P11, N-[5-ethylsulfonyl-6-[3-methyl-6-(trifluoromethyl)imidazo[4,5-c]pyridin-2-yl]-3-pyridyl]-2,2,2-trifluoro-N-methyl-acetamide]: the mortality at 200 ppm in data set [2] is no less than 80%. In addition, the percent effect (mortality or growth inhibition) at 200 ppm in data set [3], in data set [4] and in data set [7] was no less than 80% throughout. Further, the mortality at 24 ppm in [5] is no less than 80%. In the data set on Melodoigyne incognita, the pest or weed control at 200 ppm was no less than 80%. In addition, the percent control (mortality, anti-feedant effect or growth inhibition) at 200 ppm in data set [6] was no less than 80%.
For `CCS(=O)(=O)c1cc(N(C)C(=O)C(C)(C)C#N)cnc1-c1nc2cc(C(F)(F)F)ncc2n1C` [P43, 2-cyano-N-[5-ethylsulfonyl-6-[3-methyl-6-(trifluoromethyl)imidazo[4,5-c]pyridin-2-yl]-3-pyridyl]-N,2-dimethyl-propanamide], the mortality at 200 ppm in data set [2] and in data set [8] was no less than 80% throughout. The percent effect (mortality or growth inhibition) at 200 ppm in [3], in [4] and in data set [7] was no less than 80% in each case. Besides, the mortality at 24 ppm in data set [5] is no less than 80%. The pest or weed control at 200 ppm in the data set with Melodoigyne incognita was no less than 80%. In [6], the percent control (mortality, anti-feedant effect or growth inhibition) at 200 ppm was no less than 80%.
For `CCS(=O)(=O)c1cc(N(C)C(=O)C2(C#N)CC2)cnc1-c1nc2cc(C(F)(F)F)ncc2n1C` [P38, 1-cyano-N-[5-ethylsulfonyl-6-[3-methyl-6-(trifluoromethyl)imidazo[4,5-c]pyridin-2-yl]-3-pyridyl]-N-methyl-cyclopropanecarboxamide], the mortality at 200 ppm in data set [1] and in data set [2] was no less than 80% throughout. Further, the percent effect (mortality or growth inhibition) at 200 ppm in data set [3], in data set [4] and in [7] was no less than 80% each time. In data set [5], the mortality at 24 ppm was no less than 80%. The pest or weed control at 200 ppm in the data set with Melodoigyne incognita was no less than 80%.
As for `CCS(=O)(=O)c1cc(NC(C)=O)cnc1-c1nc2cc(C(F)(F)F)ncc2n1C` [P4, N-[5-ethylsulfonyl-6-[3-methyl-6-(trifluoromethyl)imidazo[4,5-c]pyridin-2-yl]-3-pyridyl]acetamide], the mortality at 200 ppm in data set [2] and in [8] was no less than 80% throughout. In addition, the percent effect (mortality or growth inhibition) at 200 ppm in [4] and in data set [7] was no less than 80% in each case. The mortality at 24 ppm in data set [5] was no less than 80%. Besides, the “Mortality (%)” value in [7] (Concentration 200 ppm, Diabrotica balteata (Example B2), listed as drawing 154) is on record as 100%.
On to `CCS(=O)(=O)c1cc(N(C)C(=O)C(F)F)cnc1-c1nc2cc(C(F)(F)F)ncc2n1C` [P13, N-[5-ethylsulfonyl-6-[3-methyl-6-(trifluoromethyl)imidazo[4,5-c]pyridin-2-yl]-3-pyridyl]-2,2-difluoro-N-methyl-acetamide], for which the mortality at 200 ppm in [1] and in data set [2] was no less than 80% each time. The percent effect (mortality or growth inhibition) at 200 ppm in [3], in [4] and in data set [7] was no less than 80% each time. Besides, in [5], the mortality at 24 ppm is no less than 80%. Also, the pest or weed control at 200 ppm in the data set with Melodoigyne incognita was no less than 80%. In addition, the percent control (mortality, anti-feedant effect or growth inhibition) at 200 ppm in data set [6] is no less than 80%.
